Experimental data from patent publication EP4800015A1, “AZABICYCLO DERIVATIVE AND PREPARATION METHOD THEREFOR, AND USE” (Zhejiang Hisun Pharmaceutical Co., Ltd., priority 2023, dated 2025).

What was measured:
Assay type in all cases: in vitro ADME
[1] = Caco-2 bidirectional permeability and efflux ratio; details: human, Caco-2, 10 µM, 120 minutes
Protocol: (§1) The bidirectional permeability and efflux ratio of the example compounds and control compound were determined in a Caco-2 monolayer cell model.
(§2) Caco-2 cells (cultured at Shanghai Medicilon Inc.) were recovered in the experiment. After the cells were in good condition, they were digested, and the cell density was adjusted (1 × 10^5 cells/cm^2). Caco-2 cells were seeded into Transwell chambers and placed in 24-well plates for cultivation. After continuous cultivation for about 21 days, TEER values were measured one day before the experiment to ensure formation of a confluent cell monolayer for transport experiments (TEER > 200 Ω·cm^2). Test compounds were diluted from 10 mM stock solutions to 10 µM concentration using transport buffer (HBSS containing BSA) (metoprolol and atenolol were set as positive compounds). For efflux determination, 0.6 mL of compound dilution solution was added to the outer well (side B), and 0.4 mL of blank transport buffer was added to the Transwell chamber. For absorption determination, 0.4 mL of transport buffer containing compound was added to the Transwell chamber, and 0.6 mL of blank transport buffer was added to the outer side. After setup, the 24-well plates were cultivated at 37 °C and 5% CO2 with 95% relative humidity for 120 minutes, and permeability of test compounds from A to B direction or B to A direction was measured, respectively, with two duplicate wells set for each direction. Liquid in Transwell chambers and 24-well plates was collected separately, 60 µL each, and 180 µL of acetonitrile (containing internal standard) was added, vortexed for 1 min, then centrifuged at 4 °C, 10000 rpm for 10 min. The supernatant was taken, filtered through a 0.22 µm membrane, and placed in vials for testing. The content of the compounds in each Transwell chamber and 24-well plate was determined by liquid chromatography-tandem mass spectrometry (LC-MS/MS). Table 4 Permeability data of compounds of the present disclosure

[2] = test system: Caco-2 monolayer cell model; test: Caco-2 bidirectional permeability and efflux ratio; details: Caco-2, conclusion
Protocol: as §1, §2

[3] = Metabolic stability in dog liver microsomes; details: dog liver microsomes 0.5 mg mL^-1, NADPH 1 mM, 0-60 min; read-out: Liver microsomal stability t1/2 (min) Dog
Protocol: (§3) The purpose of this study was to investigate the metabolic stability of the compounds of the present disclosure in human and dog liver microsomes.
(§4) The compounds were co-incubated with human (or dog) liver microsomes, and the reaction was initiated by adding coenzyme NADPH (1 mM). At 0, 5, 15, 30, and 60 minutes, 60 µL of incubation solution was removed, and 180 µL of acetonitrile containing internal standard (clopidogrel) was added to quench the reaction, the mixture was shaken for 10 seconds, centrifuged at 10000 rpm for 10 minutes, and the supernatant was taken for analysis by LC-MS/MS. The in vitro intrinsic clearance was calculated based on the elimination half-life of the test compound in the incubation system. Midazolam was used as an internal reference compound, with two parallel incubations for each. Incubation conditions are summarized in Table 6 below: Table 6 Incubation conditions for the example compounds of the present disclosure
(§5) The ratio of the peak area of analyte to internal standard (Aanalyte/AIS) was obtained from the instrument, and the remaining percentage (%Control) was calculated from the ratio of Aanalyte/AIS in non-zero time point samples to zero time samples. Ln (%Control) was plotted against incubation time and linearly fitted. The test compound clearance constant (k, min^-1) and clearance half-life (T1/2, min) were calculated using the following equations. k = −slope [formula] T1/2 = 0.693/k. [formula]

[4] = Metabolic stability in human liver microsomes; details: human liver microsomes 0.5 mg mL^-1, NADPH 1 mM, 0-60 min; read-out: Liver microsomal stability t1/2 (min) Human
Protocol: as §3, §4, §5

`CCc1c(N2CCN(C(=O)c3ncnc(C)c3O)CC2)c(=O)n2nc(-c3cc4ccccc4s3)nc2n1CC(=O)Nc1ccc(C(F)(F)F)cc1Cl` [Example 80, 2-(2-(benzo[b]thiophen-2-yl)-5-ethyl-6-(4-(5-hydroxy-6-methylpyrimidine-4-carbonyl)piperazin-1-yl)-7-oxo-[1,2,4]triazolo[1,5-a]pyrimidin-4(7H)-yl)-N-(2-chloro-4-(trifluoromethyl)phenyl)acet amide] gave an efflux ratio at 120 min, 10 µM ([1]; read-out: Efflux ratio Papp(B-A)/ Papp(A-B)) of 0.62, a Papp A→B at 120 min, 10 µM ([1]; A to B) of 3.67 ×10⁻⁶ cm/s and a Papp B→A at 120 min, 10 µM ([1]; B to A) of 2.29 ×10⁻⁶ cm/s. The “efflux (in words)” value [2] was “no significant efflux”, the “permeability (in words)” value [2] was “moderate permeability” and the half-life [3] was 637 min. It also gave a half-life [4] of 1300 min.
